Results taken from US11571435B2, “S1PR4-targeting composition for preventing or treating non-alcoholic steatohepatitis” (UNIVERSITY OF ULSAN FOUNDATION FOR INDUSTRY COOPERATION, priority 2017, dated 2023).

Tests used:
[1] = reported for FTY720; cited from earlier work
S1PR4-EGFP = experiment: S1PR4 internalization and recycling in cell lines overexpressing S1PR4-EGFP (fluorescence microscopy); assay type: cell-based; settings: S1P 100 nM, FTY720 100 nM, SLB736 1 μM, cycloheximide; for S1PR4 internalization: 30 minutes after treatment; for S1PR4 recycling to the cell membrane: 2 hours (washed after 30 minutes)
Protocol: Cell lines overexpressing S1PR4-EGFP were used to identify whether or not SLB736 and FTY720 actually internalize S1PR4 into cells and thereby act as functional antagonists.
Specifically, the cell lines overexpressing S1PR4-EGFP were incubated in a cover glass allowing for microscopic observation and were then treated with a vehicle (dimethyl sulfoxide […]), S1P (100 nM; agonist, positive control group), FTY720 (100 nM) and SLB736 (1 μM). 30 minutes and 2 hours after treatment with each material, the cell lines were fixed with a fixing solution and observed with a fluorescence microscope. At this time, the cells were cultured after treatment with a protein synthesis inhibitor (cycloheximide) in order to inhibit the synthesis of new receptors, were first observed with a fluorescence microscope 30 minutes after each material treatment, and were then washed. Then, the cells were further cultured for 1 hour 30 minutes and were secondarily observed, and cell images were obtained.

[2] = system: non-alcoholic steatohepatitis (NASH) caused by MCDD; experiment: treatment of NASH in NASH-induced mice (MCDD for 4 weeks, then 4 weeks treatment); assay type: in vivo, mouse; settings: 5 mg/kg/day for 4 weeks after 4 weeks MCDD, liver tissue
Protocol: A NASH-induced animal model obtained by administering MCDD to 8-week-old mice (C57BL6/N, Orient Bio Inc., Korea) for 4 weeks was used in order to identify the effect of the SLB736 compound on the treatment of non-alcoholic steatohepatitis (NASH). Specifically, the NASH-induced model mice were divided into two groups, the control group was further fed with MCDD for 4 weeks, the experimental group was fed with SLB736 at a dose of 5 mg/kg/day for 4 weeks in combination with MCDD, and liver tissue was collected from each mouse and observed with a microscope to determine the degree of steatosis, lobular inflammation and fibrosis.

[3] = system: non-alcoholic steatohepatitis (NASH) caused by MCDD; experiment: prevention of NASH onset in mice administered MCDD for 6 weeks; assay type: in vivo, mouse
Excerpt: In order to identify the effect of the SLB736 compound on the prevention of onset of non-alcoholic steatohepatitis (NASH), an animal model administered with MCDD for 6 weeks was used. Generally known characteristic microscopic findings of NASH include steatosis, ballooning degeneration of hepatocytes, lobular inflammation, perisinusoidal fibrosis and the like. In 2005, the NASH clinical research network (CRN) designed a detailed grading system for lesions corresponding to nonalcoholic steatohepatitis and thus proposed the nonalcoholic fatty liver disease activity score (NAS), which is widely used in various research due to the excellent reproducibility thereof. Accordingly, the present inventors have scored the grade of steatosis, location of steatosis, lobular inflammation and the extent of fibrosis, from the results of liver tissue observation of animal models, based on the CRN classification system. Based on this, the effect of SLB736, which is the target compound in the present invention, on the prevention or progression of non-alcoholic steatohepatitis caused by MCDD was evaluated. […] In order to determine this quantitatively, evaluation was conducted according to the NAS system of the CRN. […] In addition, the expression levels of TGF-β, TNF-α and MCP-1 were measured in order to identify the effects of the SLB736 compound on the expression of inflammatory markers and fibrosis markers in liver tissue. Specifically, RNA was extracted from liver tissue of the animal model and mRNA was measured using Q-PCR.

NLRP3 inflammasome = experiment: IL-1β production of LPS-treated macrophages (NLRP3 inflammasome activity); assay type: cell-based, mouse; settings: Raw cells; for inhibitory effect of IL-1β production: then LPS
Excerpt: It is well known that the treatment of macrophages with lipopolysaccharide (LPS) results in activation of inflammation-regulating complex (inflammasome), thereby increasing IL-1β production (Mariathasan et al., Nat. Rev. Immunol. 2007; 17186029). In order to determine the inhibitory effect of the activity of inflammation-regulating complex (NLRP3 inflammasome), which is a representative inflammation-regulating protein, the IL-1(3 production of candidate substances upon the treatment of macrophages with LPS was measured and evaluated.
The macrophages were treated with myriocin in different concentrations as a control group and were then treated with the same concentration of LPS for 24 hours. […] Based on this, experiments were conducted to determine the effect of sphingolipid candidates on the inhibition of IL-1β.

S1PR4 [4] = molecular target: T1, S1PR4 (Homo sapiens, UniProt O95977); experiment: agonistic activity of S1P receptors, GPCR activity measurement method of DiscoveRX Corp.; assay type: cell-based
T1 construct: purchased DiscoveRX Corp
T1 sequence (O95977 1-384): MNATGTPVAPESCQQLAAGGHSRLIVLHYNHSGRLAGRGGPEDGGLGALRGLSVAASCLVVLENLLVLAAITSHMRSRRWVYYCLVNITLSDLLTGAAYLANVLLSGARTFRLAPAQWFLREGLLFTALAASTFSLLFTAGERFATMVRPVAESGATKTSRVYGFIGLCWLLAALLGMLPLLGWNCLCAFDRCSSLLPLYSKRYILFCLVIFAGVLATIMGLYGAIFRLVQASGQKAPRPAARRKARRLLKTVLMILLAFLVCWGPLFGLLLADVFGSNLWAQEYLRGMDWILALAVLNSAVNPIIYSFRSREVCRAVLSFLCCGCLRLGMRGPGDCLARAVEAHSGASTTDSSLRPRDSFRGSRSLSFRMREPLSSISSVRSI

S1PR4 [5] = molecular target: T2, S1PR4 (Mus musculus, UniProt Q9Z0L1); experiment: S1PR4 expression in LPS-treated Raw cells; assay type: cell-based; settings: substance then LPS, vs LPS only
T2 construct: endogenous in cells; host or cells: Raw cells (mouse macrophage line)
T2 sequence (Q9Z0L1 1-386): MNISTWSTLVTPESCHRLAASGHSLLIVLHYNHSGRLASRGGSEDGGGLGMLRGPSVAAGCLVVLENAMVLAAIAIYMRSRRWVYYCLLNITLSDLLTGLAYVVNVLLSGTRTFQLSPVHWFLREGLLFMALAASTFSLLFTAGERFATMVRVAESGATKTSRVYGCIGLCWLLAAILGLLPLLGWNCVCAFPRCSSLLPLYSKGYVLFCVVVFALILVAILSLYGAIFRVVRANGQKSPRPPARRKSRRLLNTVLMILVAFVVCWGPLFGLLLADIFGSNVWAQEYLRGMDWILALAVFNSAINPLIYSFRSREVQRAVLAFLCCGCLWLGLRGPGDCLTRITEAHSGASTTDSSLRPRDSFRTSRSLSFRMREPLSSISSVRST
Protocol: In addition, Raw cells, which are mouse macrophage lines, were treated with a FTY720 or SLB736 substance, and were then treated with LPS, and S1PR4 expression was then measured.

S1PR4 [6] = molecular target: T2, S1PR4; experiment: S1PR4 protein expression in liver tissue of MCDD-fed mice (Western blotting); assay type: in vivo; settings: C57BL/6N mice, 1 mg/kg with MCDD for 6 weeks, vs MCDD alone
Excerpt: In order to determine whether or not SLB736, the compound of the present invention, acts as a functional antagonist of S1PR4, changes in S1PR4 protein expression were observed after administration of candidate substances to nonalcoholic steatohepatitis (NASH) model mice and macrophages thereof.
It is well known that the administration of a methionine choline-deficient diet (MCDD) to mice results in non-alcoholic steatohepatitis. The mice (C57BL/6N, Orient Bio, Inc., Korea) used in the experiments were divided into three groups, and MCDD alone, 1 mg/kg of MCDD and FTY720, and 1 mg/kg of MCDD and SLB736 were administered to each group for 6 weeks. Then, changes in the expression of S1PR4 protein in liver tissue of mice were measured through Western blotting.

[7] = leukocytes and lymphocytes in whole blood after administration (lymphopenia); assay type: in vivo, mouse; settings: mice, automated analyzer
Protocol: Therefore, when the SLB736 of the present invention was administered, changes of leukocytes and lymphocytes in the blood were measured to determine the possibility of side effects. On the day of autopsy, blood was collected from the posterior vein using a syringe and whole blood was refrigerated in an EDTA-2K CBC bottle. The leukocytes and lymphocytes in the whole blood were measured using an automated analyzer.

[8] = 10 times a normal dose; cited from earlier work
[9] = 1 mg/kg/day for six weeks with MCDD, liver tissue
[10] = 1 mg/kg/day for six weeks with MCDD, vs control group
[11] = liver tissue, MCDD 6 weeks model

CCCCCCCCc1ccc(CCC(N)(CO)CO)cc1 [FTY720, Fingolimod]
side effect in the blood [1]: lymphopenia in the blood

CCCCCCCCCCCCC/C=C/[C@@H](O)[C@@H](N)COP(=O)(O)O [S1P, sphingosine 1-phosphate, reference compound]
S1PR4 internalization (S1PR4-EGFP): internalized
S1PR4 recycling to the cell membrane (S1PR4-EGFP): recycled to the cell membrane

CCCCCCCCCCn1cc(CCC(N)(CO)CO)nn1 [SLB736, 2-amino-2-(2-(1-decyl-1H-1,2,3-triazol-4-yl)ethyl)propane-1,3-diol]
degree of fibrosis (microscope) [2]: considerable reduction
degree of steatosis (microscope) [2]: considerable reduction
lobular inflammation (microscope) [2]: considerable reduction
degree of fibrosis (microscope) [3, 9]: significantly reduced
degree of steatosis (microscope) [3, 9]: significantly reduced
lobular inflammation (microscope) [3, 9]: significantly reduced
degree of fibrosis, NAS system of the CRN [3, 10]: significantly alleviated
degree of steatosis, NAS system of the CRN [3, 10]: significantly alleviated
lobular inflammation, NAS system of the CRN [3, 10]: significantly alleviated
expression of MCP-1 (mRNA, Q-PCR) [3, 11]: reduced to a significant level
expression of TGF-β (mRNA, Q-PCR) [3, 11]: reduced to a significant level
expression of TNF-α (mRNA, Q-PCR) [3, 11]: reduced to a significant level
inhibitory effect of IL-1β production (NLRP3 inflammasome; 0.1 μM): excellent
inhibitory effect of IL-1β production (NLRP3 inflammasome; 1.0 μM): excellent
agonistic activity of S1P receptors (S1PR4 [4]): agonistic effect specific for S1PR4
expression level of S1PR4 (S1PR4 [5]): significantly reduce
S1PR4 internalization (S1PR4-EGFP): internalized
S1PR4 recycling to the cell membrane (S1PR4-EGFP): not recycled
amount of S1PR4 protein in liver tissue (S1PR4 [6]): decreased
leukocytes in blood [7]: no reduction
lymphocytes in blood [7]: no reduction

CCCCCCC(=O)CCCCCC/C=C/C[C@@H](O)[C@H](O)[C@@](N)(CO)C(=O)O [myriocin, reference compound]
IL-1β production (NLRP3 inflammasome; 10 μM, then LPS 100 ng/ml for 24 hours): effectively reduced IL-1β production
toxicity in animals [8]: death from severe digestive disorders
